Source: patent US10047112B2, “Fluorescent labeled inhibitors” (priority 2014, dated 2018)
pIC50: −log10 of the molar value. Like-named read-outs stand apart in the source and are kept apart here.

Columns and labels:
[1] = tested on: M. tb H37Rv-GFP; experiment: microbe, parasite or virus in culture; assay type: cell-based; details: Mycobacterium tuberculosis, 120 h, read-out: Extracellular growth IC50
[2] = tested on: M. tb H37Rv-GFP; experiment: microbe, parasite or virus in culture; assay type: cell-based; details: Mycobacterium tuberculosis, RAW264.7, 120 h, read-out: Intracellular macrophage growth IC50
[3] = in vitro; details: mouse

Row | Structure (SMILES) | pIC50 [1] | pIC50 [2] | CC50 [3]
1 | CCc1cc(C(N)=S)ccn1 [Ethionamide] | 5.22 | 5.22 | 120 µM
2 | NNC(=O)c1ccncc1 [Isoniazid] | 5.92 | 5.92 | > 150 µM
3 | CO[C@H]1/C=C/O[C@@]2(C)Oc3c(C)c(O)c4c(O)c(c(/C=N/N5CCN(C)CC5)c(O)c4c3C2=O)NC(=O)/C(C)=C\C=C\[C@H](C)[C@H](O)[C@@H](C)[C@@H](O)[C@@H](C)[C@H](OC(C)=O)[C@@H]1C [Rifampin] | 8.00 | 5.54 | 24 µM
